Test results reported in patent US8828989B2, “Oxy-cyclohexyl-4H,6H-5-oxa-2,3,10b-triaza-benzo[E]azulenes as V1A antagonists” (Hoffmann-La Roche Inc., priority 2011, dated 2014).

molecular target: T1, human V1a receptor (Homo sapiens, UniProt P37288); assay: human V1a receptor binding studies (3H-Vasopressin SPA, membranes of transfected HEK293 cells); conditions: 3H-Vasopressin displacement, HEK293 cell membranes, Ki by Cheng-Prussoff equation; read-out: pKi hV1a (converted)
T1 construct: expressed in transfected cells; host or cells: HEK293 cells, transiently transfected (membrane preparation)
T1 sequence (P37288 whole entry): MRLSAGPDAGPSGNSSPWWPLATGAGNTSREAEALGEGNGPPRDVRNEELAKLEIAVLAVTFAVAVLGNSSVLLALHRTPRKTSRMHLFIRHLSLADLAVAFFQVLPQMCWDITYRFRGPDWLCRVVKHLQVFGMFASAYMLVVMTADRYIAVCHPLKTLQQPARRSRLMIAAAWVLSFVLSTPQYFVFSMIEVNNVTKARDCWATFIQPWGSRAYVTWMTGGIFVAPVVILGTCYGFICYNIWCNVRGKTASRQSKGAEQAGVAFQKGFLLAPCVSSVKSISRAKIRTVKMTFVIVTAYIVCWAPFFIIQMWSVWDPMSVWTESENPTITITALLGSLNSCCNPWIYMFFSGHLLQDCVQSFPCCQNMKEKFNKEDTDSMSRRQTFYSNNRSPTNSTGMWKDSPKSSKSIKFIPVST
Protocol: The human V1a receptor was cloned by RT-PCR from total human liver RNA. The coding sequence was subcloned in an expression vector after sequencing to confirm the identity of the amplified sequence. […] Cell membranes were prepared from HEK293 cells transiently transfected with the expression vector and grown in 20 liter fermenters with the following protocol.
50 g of cells are resuspended in 30 ml freshly prepared ice cold Lysis buffer (50 mM HEPES, 1 mM EDTA, 10 mM MgCl2 adjusted to pH=7.4+complete cocktail of protease inhibitor (Roche Diagnostics)). Homogenized with Polytron for 1 min and sonicated on ice for 2×2 minutes at 80% intensity (Vibracell sonicator). The preparation is centrifuged 20 min at 500 g at 4° C., the pellet is discarded and the supernatant centrifuged 1 hour at 43,000 g at 4° C. (19,000 rpm). The pellet is resuspended in 12.5 ml Lysis buffer+12.5 ml Sucrose 20% and homogenized using a Polytron for 1-2 min. The protein concentration is determined by the Bradford method and aliquots are stored at −80° C. until use. For binding studies 60 mg Yttrium silicate SPA beads (Amersham) are mixed with an aliquot of membrane in binding buffer (50 mM Tris, 120 mM NaCl, 5 mM KCl, 2 mM CaCl2, 10 mM MgCl2) for 15 minutes with mixing. 50 μl of bead/membrane mixture is then added to each well of a 96 well plate, followed by 50 μl of 4 nM 3H-Vasopressin (American Radiolabeled Chemicals). For total binding measurement 100 μl of binding buffer are added to the respective wells, for non-specific binding 100 μl of […] cold vasopressin and for compound testing 100 μl of a serial dilution of each compound in 2% DMSO. The plate is incubated 1 h at room temperature, centrifuged 1 min at 1000 g and counted on a Packard Top-Count. Non-specific binding counts are subtracted from each well and data is normalized to the maximum specific binding set at 100%. To calculate an IC 50 the curve is fitted using a non-linear regression model (XLfit) and the Ki is calculated using the Cheng-Prussoff equation.

Compound	Ki
CC(C)O[C@H]1CC[C@H](c2nnc3n2-c2ccc(Cl)cc2COC3)CC1 [Example 1, trans-8-Chloro-1-(4-isopropoxy-cyclohexyl)-4H,6H-5-oxa-2,3,10b-triaza-benzo[e]azulene]	19.1 nM
CCC(C)O[C@H]1CC[C@H](c2nnc3n2-c2ccc(Cl)cc2COC3)CC1 (stereo partly drawn) [Example 2, trans-1-(4-sec-Butoxy-cyclohexyl)-8-chloro-4H,6H-5-oxa-2,3,10b-triaza-benzo[e]azulene]	4.37 nM
Clc1ccc2c(c1)COCc1nnc([C@H]3CC[C@H](OC4CCCC4)CC3)n1-2 [Example 3, trans-8-Chloro-1-(4-cyclopentyloxy-cyclohexyl)-4H,6H-5-oxa-2,3,10b-triaza-benzo[e]azulene]	0.407 nM
Clc1ccc2c(c1)COCc1nnc([C@H]3CC[C@H](Oc4ccccc4)CC3)n1-2 [Example 4, trans-8-Chloro-1-(4-phenoxy-cyclohexyl)-4H,6H-5-oxa-2,3,10b-triaza-benzo[e]azulene]	1.32 nM
Clc1ccc2c(c1)COCc1nnc([C@H]3CC[C@H](Oc4ccccn4)CC3)n1-2 [Example 5, trans-8-Chloro-1-[4-(pyridin-2-yloxy)-cyclohexyl]-4H,6H-5-oxa-2,3,10b-triaza-benzo[e]azulene]	2.34 nM
Clc1ccc2c(c1)COCc1nnc([C@H]3CC[C@H](Oc4cnccn4)CC3)n1-2 [Example 6, trans-8-Chloro-1-[4-(pyrazin-2-yloxy)-cyclohexyl]-4H,6H-5-oxa-2,3,10b-triaza-benzo[e]azulene]	26.9 nM
